Assays:
[1] = biological target: T1, Saccharomyces cerevisiae α-glucosidase (Saccharomyces cerevisiae, UniProt P53341); experiment: biochemical; settings: mean ± SD, at least three experiments; substrate p-nitrophenyl glucopyranoside, pH 6.8, 37 °C; read-out: IC50 (in vitro α-glucosidase inhibitory activity)
T1 construct: purchased Sigma-Aldrich
Procedure: The target substituted imidazo[1,2-c]quinazolines 6a–c and 11a–o were evaluated for their in vitro Saccharomyces cerevisiae α-glucosidase inhibitory activities to investigate the role of substituents on the imidazole moiety and the phenyl ring originated from benzaldehyde moieties.
α-Glucosidase enzyme ((EC3.2.1.20, Saccharomyces cerevisiae, 20 U mg^−1) and substrate (p-nitrophenyl glucopyranoside) were purchased from Sigma-Aldrich. Enzyme was prepared in potassium phosphate buffer (pH 6.8, 50 mM), as well as substituted benzo[4,5]imidazo[1,2-c]quinazoline 6a-c and highly-substituted imidazo[1,2-c]quinazolines 11a–o were dissolved in DMSO (10% final concentration). The various concentrations of these compounds ([…]), enzyme solution ([…]) and potassium phosphate buffer ([…]) were added in the 96-well plate and incubated at 37 °C for 10 min. Afterwards, the substrate ([…], 4 mM) was added to the mentioned mixture and allowed to incubate at 37 °C for 20 min. […] The percentage of enzyme inhibition was calculated using Eq. (6) and IC50 values were obtained from non-linear regression curve using the Logit method.6 %Inhibition=Abscontrol-Abssample/Abscontrol×100

α-glucosidase [2] = biological target: T2, α-glucosidase (Saccharomyces cerevisiae, UniProt P53341); experiment: Thermodynamic analysis of binding to α-glucosidase; set-up: purchased Sigma-Aldrich
Excerpt: This fluorescent intensity data was plotted as a function of temperature and binding constants; therefore, thermodynamic profile including ΔG (free energy change), ΔH (enthalpy change), and ΔS (entropy change) could be computed to determine the type of non-covalent forces between imidazo[1,2-c]quinazoline 11j and binding site of α‑glucosidase. These forces between the protein and inhibitor can be categorized into four groups: hydrogen bond, van der Waals forces, electrostatic attraction, and hydrophobic interactions. To identify the type of interactions in present study, thermodynamic parameters must be calculated using following equations:4 lnKA2/KA1=ΔH/R1/T2-1/T1 5 ΔG=-RT ln KA=ΔH-TΔS
Already, there was some information including binding constants (KA2 = 36.6 × 10^4 and KA1 = 40.5 × 10^4) as well as initial and final temperatures (T1 = 20 ℃ (293 K) and T2 = 60 ℃ (333 K)). Therefore, using Eq. (4), ΔH is obtained − 2.17 (kJ mol^–1) and subsequently using Eq. (5), ΔG and ΔS values are calculated − 20.6 (kJ mol^–1) and 62.9 (J mol^–1 K^–1), respectively.
Considering the sign of these thermodynamic parameters, the type of non-covalent force could be determined as follow: (1) ΔH > 0, ΔS > 0, hydrophobic interactions; (2) ΔH < 0, ΔS > 0, van der Waals forces; (3) ΔH < 0, ΔS < 0, hydrogen bond and van der Waals interactions; and (4) ΔH < 0, ΔS > 0, electrostatic interactions.

α-glucosidase [3] = biological target: T2, α-glucosidase; experiment: Fluorescence spectroscopy (quenching) measurements; type: binding; set-up: purchased Sigma-Aldrich
Procedure: In present study, fluorescence spectroscopy measurement was performed between imidazo[1,2-c]quinazoline 11j and the active site of enzyme using a Synergy HTX multi-mode reader (Biotek Instruments, Winooski, VT, USA) equipped with a quartz cuvette of 10 mm. The excitation wavelength was 280 nm, and the emission spectra were reported at five different temperatures in the range from 300 to 450 nm with 10 accumulations for each collection point. The emission spectrum was adjusted for the background fluorescence from the buffer solution and for the inner filter effect promoted by the inhibitors (Fig. 5).
There are two types of fluorescence quenching: dynamic and static. Dynamic quenching arises from the collisional encounter between the fluorophore (tryptophan residues) and the quencher (inhibitor). […] Therefore, the biding parameters can be determined as follow:
The reaction is determined as P + D → DnP in which P is the protein, D is the drug molecule (inhibitor), and DnP is the new complex molecule. The binding constant for this complex for this complex, denoted as KA, is calculated using Eq. (1). […] Since the number of the binding site of protein and drug is n and 1, respectively, the equivalent concentration of the complex DnP is n[DnP]. Moreover, the equivalent concentration of the protein is n[P], and the equivalent concentration of the drug is [D]:1 KA=nDnP/DnP
The total concentration of protein is [Pt], and the total concentration of the drug is [Dt]; therefore, [Pt] = [Pf] + [DnP] and [Df] = [Dt]−n[DnP]. Since protein (P) is the only fluorescence in present study, thus:2 F0/F=Pt/Pf
F and F0 are the fluorescence intensity of protein in the presence and absence of inhibitor, respectively. Therefore, the relationship between the fluorescence intensity and the total concentration of the drug could be deduced:3 F0/F=KADtF0/F0-F-n KAPt
As the total concentration of protein was kept at a constant value (at 46 nM), while the total concentration of the drug was changed. Using the Eq. (3), a plot of F0/F Vs. [Dt] F0/(F0−F) was obtained, as depicted in Fig. 6.
To this aim, different solutions containing different concentrations (0 to 1.0 µM) of the inhibitor and α-glucosidase (3 ml, 0.1 U ml^−1) were held for 10 min to equilibrate before measurements. Moreover, the fluorescence of the buffer containing compound 11j in the absence of the enzyme were subtracted as the background fluorescence. Afterwards, at the excitation wavelength of 280 nm, the fluorescence emission spectra were measured from 300 to 450 nm using a Synergy HTX multi-mode reader (Biotek Instruments, Winooski, VT, USA) equipped with a 1.0 cm quartz cell holder.

α-glucosidase [4] = biological target: T2, α-glucosidase; experiment: Enzyme kinetic study (Lineweaver–Burk plot)
Procedure: [I] is the concentration of inhibitor.
Therefore, the slope of Lineweaver Burk plot is equal to:10 Slope=Km/Vmax1+I/KI
The Kmapp value is calculated by Eq. (6):11 Kmapp=Km1+I/KI
[I], Eq. (7) can be used for the calculation of KI[59],[60]:12 Kmapp=Km+Km/KII

α-glucosidase [5] = biological target: T2, α-glucosidase; experiment: Circular dichroism spectroscopy, secondary structure content of the enzyme; set-up: purchased Sigma-Aldrich; settings: inhibitor 12.4 μM
Procedure: The difference between the absorption of right and left circularly polarized light is measured in circular dichroism spectroscopy (CD) in order to reveal the chiral environment around amino acid residues. The CD spectrum in the far ultraviolet region ranged from 190 to 240 nm is mainly used to provide valuable information about the arrangement of protein bonds and secondary structure of the proteins in dilute solutions. There are several principal conformations like α-helix, extended β structure (or β-sheet), β-turn, and random coil (which are unordered structures). They are characterized as follow: α-helix structures by negative CD bands at 222 and 208 nm and a positive CD band at approximately 190 nm; β-sheet structures by a negative CD band in the region of 210–220 nm; β-turn structures by a negative CD band between 180 and 190 nm; and the spectra of random coil by a characteristic negative CD band in region of 200 nm[49],[50].
To study the impact of imidazo[1,2-c]quinazoline 11j on the secondary structure of α-glucosidase (Fig. 4b), the CD spectra (180–250 nm) was measured and analyzed using the CDNN software to be compared with the native enzyme (Fig. 4a). […] Moreover, this compound can change the secondary structure of α-glucosidase, resulting to inhibit its performance.

T2 sequence (P53341 whole entry): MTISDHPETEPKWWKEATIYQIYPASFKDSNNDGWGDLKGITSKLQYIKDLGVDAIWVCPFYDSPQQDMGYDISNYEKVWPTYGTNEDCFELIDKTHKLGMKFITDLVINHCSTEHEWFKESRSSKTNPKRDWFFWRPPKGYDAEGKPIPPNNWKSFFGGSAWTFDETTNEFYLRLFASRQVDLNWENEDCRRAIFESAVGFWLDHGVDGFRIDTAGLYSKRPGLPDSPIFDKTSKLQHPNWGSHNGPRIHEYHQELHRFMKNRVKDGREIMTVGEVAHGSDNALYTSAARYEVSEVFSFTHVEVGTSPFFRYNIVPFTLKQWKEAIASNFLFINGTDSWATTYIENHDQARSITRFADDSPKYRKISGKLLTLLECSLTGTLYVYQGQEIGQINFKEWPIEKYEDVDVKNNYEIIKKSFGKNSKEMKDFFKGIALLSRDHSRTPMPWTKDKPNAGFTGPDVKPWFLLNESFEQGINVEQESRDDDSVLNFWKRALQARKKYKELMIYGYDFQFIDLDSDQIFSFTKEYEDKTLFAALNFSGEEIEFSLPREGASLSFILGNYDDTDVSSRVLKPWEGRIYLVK
T1 sequence (P53341 whole entry): as above

Row | Compound | IC50 [1] | further results
1 | COc1cc(-c2nc3ccccc3c3nc(-c4ccccc4)c(-c4ccccc4)n23)cc(OC)c1OC [11n, 2,3-diphenyl-5-(3,4,5-trimethoxyphenyl)imidazo[1,2-c]quinazoline] | 46.73 ± 0.07 µM | –
2 | c1ccc(-c2nc3ccccc3c3nc4ccccc4n23)cc1 [6a, 6-phenylbenzo[4,5]imidazo[1,2-c]quinazoline] | 256.48 ± 0.14 µM | –
3 | COc1cccc(-c2nc3ccccc3c3nc(-c4ccccc4)c(-c4ccccc4)n23)c1OC [11j, 5-(2,3-dimethoxyphenyl)-2,3-diphenylimidazo[1,2-c]quinazoline] | – | ΔS (entropy change) (α-glucosidase [2]; Eq. (5)): 62.9 J mol^–1 K^–1; acting non-covalent force between inhibitor and enzyme (α-glucosidase [2]; from signs of ΔH and ΔS): electrostatic forces; number of binding sites n (α-glucosidase [3]; 20 ℃): 0.3; binding constant KA (α-glucosidase [3]; 20 ℃, protein 46 nM): 40.5 × 10^4 L mol^–1 s^–1; binding constant KA (α-glucosidase [3]; 60 ℃): 36.6 × 10^4 L mol^–1 s^–1; fluorescence quenching mechanism (α-glucosidase [3]; tryptophan residues as fluorophores): static quenching; Ki (α-glucosidase [4]): 11 µM; type of inhibition (α-glucosidase [4]; Lineweaver–Burk plot: Km increased, Vmax did not change): competitive; α-Helix content of α-glucosidase (α-glucosidase [5]; native enzyme 28.8): 50.3%; ꞵ-Turn content of α-glucosidase (α-glucosidase [5]; native enzyme 28.8): 49.7%; Random coil content of α-glucosidase (α-glucosidase [5]; native enzyme 42.4): 0%
4 | COc1ccccc1-c1nc2ccccc2c2nc(-c3ccccc3)c(-c3ccccc3)n12 [11i, 5-(2-methoxyphenyl)-2,3-diphenylimidazo[1,2-c]quinazoline] | 24.25 ± 0.13 µM | –
5 | COc1cc(-c2nc3ccccc3c3nc(-c4ccccc4)c(-c4ccccc4)n23)cc(Br)c1OC [11o, 5-(3-bromo-4,5-dimethoxyphenyl)-2,3-diphenylimidazo[1,2-c]quinazoline] | 154.9 ± 0.36 µM | –
6 | COc1ccc(OC)c(-c2nc3ccccc3c3nc(-c4ccccc4)c(-c4ccccc4)n23)c1 [11l, 5-(2,5-dimethoxyphenyl)-2,3-diphenylimidazo[1,2-c]quinazoline] | 64.29 ± 0.54 µM | –
7 | COc1cccc(-c2nc3ccccc3c3nc(-c4ccccc4)c(-c4ccccc4)n23)c1 [11h, 5-(3-methoxyphenyl)-2,3-diphenylimidazo[1,2-c]quinazoline] | 47.92 ± 0.18 µM | –
8 | COc1ccc(-c2nc3ccccc3c3nc(-c4ccccc4)c(-c4ccccc4)n23)cc1OC [11m, 5-(3,4-dimethoxyphenyl)-2,3-diphenylimidazo[1,2-c]quinazoline] | 21.6 ± 0.32 µM | –
9 | Cc1ccc(-c2nc3ccccc3c3nc(-c4ccccc4)c(-c4ccccc4)n23)cc1 [11e, 5-(4-methylphenyl)-2,3-diphenylimidazo[1,2-c]quinazoline] | 124.5 ± 0.29 µM | –
10 | COc1ccc(-c2nc3ccccc3c3nc(-c4ccccc4)c(-c4ccccc4)n23)c(OC)c1 [11k, 5-(2,4-dimethoxyphenyl)-2,3-diphenylimidazo[1,2-c]quinazoline] | 14.32 ± 0.05 µM | –
11 | Clc1ccc(-c2nc3ccccc3c3nc4ccccc4n23)cc1 [6b, 6-(4-chlorophenyl)benzo[4,5]imidazo[1,2-c]quinazoline] | 308.33 ± 0.06 µM | –
12 | Clc1ccccc1-c1nc2ccccc2c2nc(-c3ccccc3)c(-c3ccccc3)n12 [11d, 5-(2-chlorophenyl)-2,3-diphenylimidazo[1,2-c]quinazoline] | 253.1 ± 0.26 µM | –
13 | COc1ccc(-c2nc3ccccc3c3nc4ccccc4n23)cc1 [6c, 6-(4-methoxyphenyl)benzo[4,5]imidazo[1,2-c]quinazoline] | 124.3 ± 0.37 µM | –
14 | c1ccc(-c2nc3c4ccccc4nc(-c4ccccc4)n3c2-c2ccccc2)cc1 [11a, 2,3,5-triphenylimidazo[1,2-c]quinazoline] | 209.15 ± 0.04 µM | –
15 | COc1ccc(-c2nc3ccccc3c3nc(-c4ccccc4)c(-c4ccccc4)n23)cc1 [11g, 5-(4-methoxyphenyl)-2,3-diphenylimidazo[1,2-c]quinazoline] | 82.64 ± 0.03 µM | –
16 | Clc1cccc(-c2nc3ccccc3c3nc(-c4ccccc4)c(-c4ccccc4)n23)c1 [11c, 5-(3-chlorophenyl)-2,3-diphenylimidazo[1,2-c]quinazoline] | 246.49 ± 0.18 µM | –
17 | CN(C)c1ccc(-c2nc3ccccc3c3nc(-c4ccccc4)c(-c4ccccc4)n23)cc1 [11f, 4-(2,3-diphenylimidazo[1,2-c]quinazolin-5-yl)-N,N-dimethylaniline] | 168.36 ± 0.15 µM | –
18 | Clc1ccc(-c2nc3ccccc3c3nc(-c4ccccc4)c(-c4ccccc4)n23)cc1 [11b, 5-(4-chlorophenyl)-2,3-diphenylimidazo[1,2-c]quinazoline] | 273.28 ± 0.09 µM | –
